Structures can show the parent of a compound that is named as a salt. Where two headings read alike, the source gives them in different places.
Legend:
human 5-HT1A receptors = target: T1, human 5-HT1A receptors (Homo sapiens, UniProt P08908); assay: [3H] 8-OHDPAT displacement from 5-HT1A receptor in stably transfected CHO cells; type: binding
T1 construct: expressed in transfected cells; host or cells: CHO cells
T1 sequence (P08908 1-422): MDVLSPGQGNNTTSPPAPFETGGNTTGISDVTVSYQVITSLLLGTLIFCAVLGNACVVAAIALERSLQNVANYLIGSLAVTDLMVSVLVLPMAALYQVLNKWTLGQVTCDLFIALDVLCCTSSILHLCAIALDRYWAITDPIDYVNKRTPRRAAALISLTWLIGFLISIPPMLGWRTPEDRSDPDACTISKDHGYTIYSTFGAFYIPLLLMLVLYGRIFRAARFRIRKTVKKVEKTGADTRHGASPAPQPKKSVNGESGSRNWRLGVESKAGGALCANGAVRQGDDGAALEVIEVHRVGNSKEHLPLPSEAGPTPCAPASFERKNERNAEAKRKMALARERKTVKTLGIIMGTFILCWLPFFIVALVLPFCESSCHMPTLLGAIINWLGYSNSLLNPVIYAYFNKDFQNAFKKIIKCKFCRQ
Excerpt: High affinity for the serotonin 5-HT1A receptor was established by testing the claimed compound's ability to displace [^3H] 8-OHDPAT (dipropylaminotetralin) from the 5-HT1A serotonin receptor following a modification of the procedure of Hall et al., J. Neurochem. 44, 1685 (1985) which utilizes CHO cells stably transfected with human 5-HT1A receptors.

[1] = target: T2, cloned human 5-HT1A receptors (Homo sapiens, UniProt P08908); assay: 35S-GTPγS binding assay, antagonist activity at 5-HT1A receptors; type: biochemical; parameters: 5-HT1A Function Imax (maximum inhibitory effect): unit not given here
T2 construct: expressed in transfected cells
T2 sequence (P08908 1-422): T1 sequence (P08908 1-422)
Experimental: Antagonist activity at 5-HT1A receptors was established by using a ^35S-GTPγS binding assay similar to that used by Lazareno and Birdsall (Br. J. Pharmacol. 109: 1120, 1993), in which the test compound's ability to affect the binding of ^35S-GTPγS to membranes containing cloned human 5-HT1A receptors was determined. Agonists produce an increase in binding whereas antagonists produce no increase but rather reverse the effects of the standard agonist 8-OHDPAT. The test compound's maximum inhibitory effect is represented as the Imax, while its potency is defined by the IC50.

serotonin transporter = target: T3, serotonin transporter (Rattus norvegicus, UniProt P31652); assay: 3H-paroxetine displacement from male rat frontal cortical membranes (serotonin transporter affinity); type: binding
T3 construct: displace ^3H-paroxetine from male rat frontal cortical membranes; from tissue; host or cells: male rat frontal cortex membranes

[2] = 35S-GTPγS binding, reversal of the effects of the standard agonist 8-OHDPAT
[3] = 35S-GTPγS binding, reversal of the effects of the standard agonist 8-OHDPAT, read-out: 5-HT1A Function IC50

T3 sequence (P31652 whole entry): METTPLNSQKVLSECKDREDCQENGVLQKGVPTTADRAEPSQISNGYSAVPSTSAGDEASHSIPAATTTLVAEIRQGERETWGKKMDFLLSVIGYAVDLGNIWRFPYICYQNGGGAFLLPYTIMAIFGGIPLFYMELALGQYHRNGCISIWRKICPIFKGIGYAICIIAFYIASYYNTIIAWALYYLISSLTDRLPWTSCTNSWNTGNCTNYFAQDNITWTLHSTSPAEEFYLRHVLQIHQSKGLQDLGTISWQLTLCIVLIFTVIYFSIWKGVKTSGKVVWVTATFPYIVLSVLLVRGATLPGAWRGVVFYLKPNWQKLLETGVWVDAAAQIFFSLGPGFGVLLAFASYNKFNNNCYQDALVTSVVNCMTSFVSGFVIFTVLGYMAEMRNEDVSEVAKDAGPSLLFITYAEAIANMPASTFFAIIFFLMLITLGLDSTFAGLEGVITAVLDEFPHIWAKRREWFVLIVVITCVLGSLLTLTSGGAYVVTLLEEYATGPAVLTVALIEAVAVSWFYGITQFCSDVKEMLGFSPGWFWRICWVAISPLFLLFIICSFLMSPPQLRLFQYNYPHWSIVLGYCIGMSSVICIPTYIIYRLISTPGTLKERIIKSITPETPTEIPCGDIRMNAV

SMILES	Ki (human 5-HT1A receptors)	IC50 [1]	5-HT1A Function Imax (maximum inhibitory effect) [1, 2]	Ki (serotonin transporter)	melting point	IC50 [1, 3]	Ki (human 5-HT1A receptors; displacement of [3H] 8-OHDPAT, CHO cells stably transfected with human 5-HT1A receptors, read-out: 5-HT1A Receptor Affinity KI)
Nc1ccc2c(c1)O[C@@H](CN1CC=C(c3c[nH]c4ccccc34)CC1)CO2 (single isomer, unassigned) [Example 3]	31 nM	232 nM	(96.0)	1.16 nM	–	–	–
COc1ccc2c(c1)OC(CN1CC=C(c3c[nH]c4ccccc34)CC1)CO2 (centres unmarked) [Example 13, 3-(1-{[7-Methoxy-2,3-dihydro-1,4-benzodioxin-2-yl]methyl}-1,2,3,6-tetrahydropyridin-4-yl)-1H-indole]	17.3 nM	–	(100)	40 nM	166 to 168 °C	522 nM	–
Fc1ccc2[nH]cc(C3=CCN(CC4COc5ccccc5O4)CC3)c2c1 (centres unmarked) [Example 2, 5-Fluoro-3-[4-[1,2,3,6-tetrahydro-1-[2-(2,3-dihydro[1,4]benzodioxinyl)]methyl]pyridinyl]indole]	68.3 nM	–	–	16 nM	–	–	–
Nc1ccc2c(c1)OCC(CN1CC=C(c3c[nH]c4ccccc34)CC1)O2 (single isomer, unassigned) [Example 3, 3-[4-(1H-Indol-3-yl)-3,6-dihydro-2H-pyridin-1-ylmethyl]-2,3-dihydro-benzo[1,4]dioxin-7-ylamine]	–	–	–	–	204 to 206 °C	–	–
NC(=O)c1cccc2c1OC(CN1CC=C(c3c[nH]c4ccccc34)CC1)CO2 (centres unmarked) [Example 10, 3-[4-(1H-Indol-3-yl)-3,6-dihydro-2H-pyridin-1-ylmethyl]-2,3-dihydro-benzo[1,4]dioxine-5-carboxylic Acid Amide]	64.6 nM	–	(61.0)	4.96 nM	175 to 178 °C	1280 nM	–
COc1cccc2c1OC(CN1CC=C(c3c[nH]c4ccccc34)CC1)CO2 (centres unmarked) (hydrate or solvate) [Example 5, 3-[1-(8-Methoxy-2,3-dihydro-benzo[1,4]dioxin-2-ylmethyl)-1,2,3,6-tetrahydro-pyridin-4-yl]-1H-indole]	–	–	–	–	203 to 205 °C	–	–
NC(=O)c1cccc2c1OC(CN1CC=C(c3c[nH]c4ccc(F)cc34)CC1)CO2 (centres unmarked) [Example 11, 3-[4-(5-Fluoro-1H-indol-3-yl)-3,6-dihydro-2H-pyridin-1-ylmethyl]-2,3-dihydro-benzo[1,4]dioxine-5-carboxylic Acid Amide]	70.6 nM	–	(60.0)	3.13 nM	195 to 197 °C	736 nM	–
Fc1cccc2c1OC(CN1CC=C(c3c[nH]c4ccccc34)CC1)CO2 (centres unmarked) [Example 12, 3-(1-{[8-Fluoro-2,3-dihydro-1,4-benzodioxin-2-yl]methyl}-1,2,3,6-tetrahydropyridin-4-yl)-1H-indole]	35.5 nM	–	(76.0)	49 nM	174 to 177 °C	521 nM	–
Nc1ccc2c(c1)OCC(CN1CC=C(c3c[nH]c4ccc(F)cc34)CC1)O2 (centres unmarked) [Example 6, 2-[4-(5-Fluoro-1H-indol-3-yl)-3,6-dihydro-2H-pyridin-1-ylmethyl]-2,3-dihydro-benzo[1,4]dioxin-6-ylamine]	46.7 nM	–	(96.7)	0.34 nM	172 to 174 °C	411 nM	–
Nc1ccc2c(c1)OCC(CN1CC=C(c3c[nH]c4ccccc34)CC1)O2 (centres unmarked) [Example 4, 2-[4-(1H-Indol-3-yl)-3,6-dihydro-2H-pyridin-1-ylmethyl]-2,3-dihydro-benzo[1,4]dioxin-6-ylamine]	–	–	(90.0)	2.03 nM	199 to 200 °C	240 nM	132 nM
COc1ccc2[nH]cc(C3=CCN(CC4COc5ccccc5O4)CC3)c2c1 (centres unmarked) [Example 1, 5-Methoxy-3-[4-[1,2,3,6-tetrahydro-1-[2-(2,3-dihydro[1,4]benzodioxinyl)]methyl]pyridinyl]indole]	27.2 nM	–	–	–	–	–	–
COc1cccc2c1O[C@@H](CN1CC=C(c3c[nH]c4ccc(F)cc34)CC1)CO2 [Example 14, 5-Fluoro-3-[1-(8-methoxy-2,3-dihydro-benzo[1,4]dioxin-2-ylmethyl)-1,2,3,6-tetrahydro-pyradin-4-yl]-1H-indole]	8.57 nM	–	(100)	1.79 nM	–	70 nM	–
COc1cccc2c1OC(CN1CC=C(c3c[nH]c4ccc(C#N)cc34)CC1)CO2 (centres unmarked) [Example 7, 3-[1-(8-Methoxy-2,3-dihydro-benzo[1,4]dioxin-2-ylmethyl)-1,2,3,6-tetrahydro-pyridin-4-yl]-1H-indole-5-carbonitrile]	7.95 nM	–	(100)	1.04 nM	–	82.5 nM	–
COc1cccc2c1O[C@@H](CN1CC=C(c3c[nH]c4ccc(F)cc34)CC1)CO2 (as salt: oxalate) [Example 14, 5-Fluoro-3-[1-(8-methoxy-2,3-dihydro-benzo[1,4]dioxin-2-ylmethyl)-1,2,3,6-tetrahydro-pyradin-4-yl]-1H-indole]	–	–	–	–	154 to 156 °C	–	–
Fc1ccc2[nH]cc(C3=CCN(CC4COc5ccccc5O4)CC3)c2c1 (centres unmarked) (as salt: oxalate) [Example 2, 5-Fluoro-3-[4-[1,2,3,6-tetrahydro-1-[2-(2,3-dihydro[1,4]benzodioxinyl)]methyl]pyridinyl]indole]	–	–	–	–	145 °C (dec.)	–	–
COc1cccc2c1OC(CN1CC=C(c3c[nH]c4ccccc34)CC1)CO2 (centres unmarked) [Example 5, 3-[1-(8-Methoxy-2,3-dihydro-benzo[1,4]dioxin-2-ylmethyl)-1,2,3,6-tetrahydro-pyridin-4-yl]-1H-indole]	2.85 nM	–	(89.3)	0.17 nM	–	57.3 nM	–
COc1cccc2c1O[C@@H](CN1CC=C(c3c[nH]c4ncccc34)CC1)CO2 [Example 8, 3-[1-(8-Methoxy-2,3-dihydro-benzo[1,4]dioxin-2-ylmethyl)-1,2,3,6-tetrahydro-pyridin-4-yl]-1H-pyrrole[2,3-b]pyridine]	4.3 nM	–	(94.0)	39 nM	207 to 210 °C	26 nM	–
COc1cccc2c1OC(CN1CC=C(c3c[nH]c4cc(F)ccc34)CC1)CO2 (centres unmarked) [Example 9, 6-Fluoro-3-[1-(8-methoxy-2,3-dihydro-1,4-benzodioxin-2-ylmethyl)-1,2,3,6-tetrahydro-pyridin-4-yl]-1H-indole]	4.88 nM	–	(80.0)	0.6 nM	184 to 185 °C	272 nM	–
COc1ccc2[nH]cc(C3=CCN(CC4COc5ccccc5O4)CC3)c2c1 (centres unmarked) (as salt: oxalate) [Example 1, 5-Methoxy-3-[4-[1,2,3,6-tetrahydro-1-[2-(2,3-dihydro[1,4]benzodioxinyl)]methyl]pyridinyl]indole]	–	–	–	–	120 °C (dec.)	–	–
COc1cccc2c1OC(CN1CC=C(c3c[nH]c4ccc(C#N)cc34)CC1)CO2 (centres unmarked) (as salt: hydrochloride) (hydrate or solvate) [Example 7, 3-[1-(8-Methoxy-2,3-dihydro-benzo[1,4]dioxin-2-ylmethyl)-1,2,3,6-tetrahydro-pyridin-4-yl]-1H-indole-5-carbonitrile]	–	–	–	–	235 to 238 °C	–	–

— patent US7041683B2 (Wyeth, priority 2001, dated 2006)
